Measurements reported in the supplement of paper PMC13380429.

Tests used:
Details in all cases: 72 h
U2OS [1] = assay: cell viability relative to DMSO; higher = less toxic
Vero E6 [2] = assay: as above
Calu-3 [3] = assay: as above
Caco-2 [4] = assay: as above
HepG2 [5] = assay: as above
U2OS [6] = assay: drug sensitivity score (DSS) for viability; higher = more toxic; extreme values may be limits of the assay
Vero E6 [7] = assay: as above
Calu-3 [8] = assay: as above
Caco-2 [9] = assay: as above
HepG2 [10] = assay: as above
U2OS [11] = assay: relative viability EC50 (midpoint between 100% and the lowest measured viability); higher = less toxic
Vero E6 [12] = assay: as above
Calu-3 [13] = assay: as above
Caco-2 [14] = assay: as above
HepG2 [15] = assay: as above

SMILES	cell viability (U2OS [1]; 1 nM)	cell viability (U2OS [1]; 10 nM)	cell viability (U2OS [1]; 100 nM)	cell viability (U2OS [1]; 1000 nM)	cell viability (U2OS [1]; 10000 nM)	cell viability (Vero E6 [2]; 1 nM)	cell viability (Vero E6 [2]; 10 nM)	cell viability (Vero E6 [2]; 100 nM)	cell viability (Vero E6 [2]; 1000 nM)	cell viability (Vero E6 [2]; 10000 nM)	cell viability (Calu-3 [3]; 1 nM)	cell viability (Calu-3 [3]; 10 nM)	cell viability (Calu-3 [3]; 100 nM)	cell viability (Calu-3 [3]; 1000 nM)	cell viability (Calu-3 [3]; 10000 nM)	cell viability (Caco-2 [4]; 1 nM)	cell viability (Caco-2 [4]; 10 nM)	cell viability (Caco-2 [4]; 100 nM)	cell viability (Caco-2 [4]; 1000 nM)	cell viability (Caco-2 [4]; 10000 nM)	cell viability (HepG2 [5]; 1 nM)	cell viability (HepG2 [5]; 10 nM)	cell viability (HepG2 [5]; 100 nM)	cell viability (HepG2 [5]; 1000 nM)	cell viability (HepG2 [5]; 10000 nM)	drug sensitivity score (U2OS [6])	drug sensitivity score (Vero E6 [7])	drug sensitivity score (Calu-3 [8])	drug sensitivity score (Caco-2 [9])	drug sensitivity score (HepG2 [10])	relative viability EC50 (U2OS [11])	relative viability EC50 (Vero E6 [12])	relative viability EC50 (Calu-3 [13])	relative viability EC50 (Caco-2 [14])	relative viability EC50 (HepG2 [15])
CN1C(=O)CC(c2ccccc2)C1=O (stereo not given) [phensuximide]	96.2%	99.8%	100%	98.3%	106%	104%	103%	99.5%	103%	98.3%	100%	108%	107%	99.1%	103%	99.3%	102%	97.2%	90.9%	103%	108%	110%	96.4%	98.3%	98.9%	0	0	0	0	0	> 10 µM	> 10 µM	> 10 µM	> 10 µM	> 10 µM
Oc1cc(O)cc(O)c1 [phloroglucin]	101%	98.3%	98.7%	98.2%	98.7%	101%	102%	98.6%	103%	101%	104%	105%	113%	90.1%	98.8%	113%	91.5%	104%	91.6%	104%	103%	104%	91.8%	99%	104%	0	0	0	0	0	> 10 µM	> 10 µM	> 10 µM	> 10 µM	> 10 µM
Cc1ccc2c(c1)c1c3n2CCNC3CCC1 (stereo not given) [pirlindole]	100%	102%	96.9%	103%	102%	97.7%	100%	97.6%	101%	101%	98.1%	100%	98%	102%	99.1%	90.9%	101%	97.9%	101%	104%	100%	98%	99.9%	102%	82.4%	0	0	0	0	0.3	> 10 µM	> 10 µM	> 10 µM	> 10 µM	> 10 µM
Nc1ccc(C(=O)O)cc1 [potassium-p-aminobenzoate]	96.2%	101%	94.4%	103%	94.9%	105%	105%	104%	97.1%	100%	107%	97.1%	99%	105%	103%	95.6%	97.1%	95.1%	102%	102%	102%	93.6%	109%	112%	103%	0	0	0	0	0	> 10 µM	> 10 µM	> 10 µM	> 10 µM	> 10 µM
OC(CCN1CCCCC1)(c1ccccc1)c1ccccc1 [pridinol]	99.5%	102%	93.7%	93.5%	100%	99.8%	103%	100%	93.8%	98.5%	97.8%	96.9%	91.7%	99.4%	93.2%	96.9%	108%	97.9%	94.9%	99%	101%	95.3%	101%	106%	106%	0	0	0	0	0	> 10 µM	> 10 µM	> 10 µM	> 10 µM	> 10 µM
CCCNC(C)C(=O)Nc1ccccc1C (stereo not given) [prilocaine]	100%	108%	99.3%	105%	96.9%	101%	98.9%	92.2%	99.8%	96.9%	89%	102%	95.5%	94%	101%	95.1%	100%	99.1%	102%	97.3%	113%	91.9%	102%	96.2%	98.8%	0	0	0	0	0	> 10 µM	> 10 µM	> 10 µM	> 10 µM	> 10 µM
C[C@H](N[C@@H](CCc1ccccc1)C(=O)O)C(=O)N1Cc2ccccc2C[C@H]1C(=O)O [quinaprilat]	94.7%	96.1%	98.3%	98.1%	106%	91.8%	98.9%	91.8%	104%	106%	97.5%	97.6%	91.3%	97%	93.5%	102%	98.2%	96.8%	100%	92.1%	107%	94.9%	98.4%	110%	94.9%	0	0	0	0	0	> 10 µM	> 10 µM	> 10 µM	> 10 µM	> 10 µM
c1cc2c(cc1[C@H]1OC[C@H]3[C@@H]1CO[C@@H]3c1ccc3c(c1)OCO3)OCO2 [sesamin]	96.9%	100%	102%	104%	99.3%	99.8%	103%	94.6%	99.3%	99.4%	109%	103%	102%	98.1%	90.1%	93.7%	95%	98.4%	95.7%	89.2%	105%	107%	102%	91.1%	106%	0	0	0	0	0	> 10 µM	> 10 µM	> 10 µM	> 10 µM	> 10 µM
CCc1cc(/C(C)=N/OCc2ccc(C3CCCCC3)c(C(F)(F)F)c2)ccc1CN1CC(C(=O)O)C1 [siponimod]	101%	99.5%	96.6%	101%	98.7%	102%	101%	98.6%	96.6%	96.4%	116%	99.7%	98.8%	96.6%	97.6%	93.6%	107%	91.3%	97.6%	81.3%	104%	89.8%	91.3%	110%	97.4%	0	0	0	0.8	0	> 10 µM	> 10 µM	> 10 µM	> 10 µM	> 10 µM
COc1nccnc1NS(=O)(=O)c1ccc(N)cc1 [sulfametopyrazine]	102%	95.4%	104%	96.8%	98.9%	102%	107%	95.2%	100%	97.5%	98.5%	97%	98.1%	101%	102%	99.7%	87.3%	101%	89.7%	102%	97.6%	99.7%	103%	91.9%	99.4%	0	0	0	0	0	> 10 µM	> 10 µM	> 10 µM	> 10 µM	> 10 µM
CNC(=O)c1cc(COc2nnc(Nc3ccc(Cl)cc3)c3ccoc23)ccn1 [telatinib]	101%	97.6%	101%	98%	92.4%	92.7%	95.5%	92.1%	93.3%	102%	106%	106%	98.8%	96.6%	104%	96.6%	95.4%	99.3%	97.2%	98.8%	85.9%	106%	97.7%	101%	114%	0	0	0	0	0	> 10 µM	> 10 µM	> 10 µM	> 10 µM	> 10 µM
C/N=C(/NC#N)NCCSCc1csc(NC(=N)N)n1 [tiotidine]	105%	96%	97.9%	98.6%	106%	91.5%	96.6%	96.6%	92.8%	108%	99.5%	97.2%	91.7%	101%	104%	102%	94.4%	104%	104%	110%	96.4%	105%	98.3%	108%	113%	0	0	0	0	0	> 10 µM	> 10 µM	> 10 µM	> 10 µM	> 10 µM
CCC(=O)N1CCN(c2ccc(-n3c(=O)ccc4cnc5ccc(-c6cnc7ccccc7c6)cc5c43)cc2C(F)(F)F)CC1 [torin-1]	100%	103%	91.8%	42.2%	19%	93.4%	94.4%	88.2%	57.9%	39.4%	108%	98.7%	86.4%	33.7%	32.4%	97.5%	101%	89.6%	49.4%	31.1%	101%	97.9%	95%	53.8%	26.3%	12	9.3	14.4	10.7	9.8	0.512 µM	0.404 µM	0.183 µM	0.426 µM	0.684 µM
Nc1ccc(-c2ccc3ncc4ccc(=O)n(-c5cccc(C(F)(F)F)c5)c4c3c2)cn1 [torin-2]	92.5%	90.8%	26.6%	11%	0.5%	94.6%	77.1%	48.6%	36%	11.5%	86.3%	62.6%	30.2%	22.2%	18.5%	89.4%	69.1%	32.7%	21.7%	17.8%	91.2%	81.6%	41.2%	16.3%	3.4%	27.3	21	28.1	26.6	24.5	0.0481 µM	0.0738 µM	0.0111 µM	0.0169 µM	0.0594 µM
